{"source": "paper PMC10746543", "about": "“Design principles for cyclin K molecular glue degraders” (Nature Chemical Biology, 2023)", "key": {"CDK12–cyclin K": {"target": "CDK12–cyclin K (Homo sapiens, UniProt Q9NYV4)", "sequence (Q9NYV4 713-1052)": "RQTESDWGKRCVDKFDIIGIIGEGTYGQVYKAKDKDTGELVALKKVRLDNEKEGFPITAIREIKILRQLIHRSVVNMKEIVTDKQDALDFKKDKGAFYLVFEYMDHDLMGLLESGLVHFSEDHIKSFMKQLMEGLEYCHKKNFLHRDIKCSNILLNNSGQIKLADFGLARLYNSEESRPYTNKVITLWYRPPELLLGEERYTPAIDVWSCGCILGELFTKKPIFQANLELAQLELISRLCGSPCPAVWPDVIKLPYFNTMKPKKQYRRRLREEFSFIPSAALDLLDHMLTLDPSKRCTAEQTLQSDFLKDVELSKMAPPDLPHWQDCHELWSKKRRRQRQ", "sequence (O75909 1-267 partner limits assumed)": "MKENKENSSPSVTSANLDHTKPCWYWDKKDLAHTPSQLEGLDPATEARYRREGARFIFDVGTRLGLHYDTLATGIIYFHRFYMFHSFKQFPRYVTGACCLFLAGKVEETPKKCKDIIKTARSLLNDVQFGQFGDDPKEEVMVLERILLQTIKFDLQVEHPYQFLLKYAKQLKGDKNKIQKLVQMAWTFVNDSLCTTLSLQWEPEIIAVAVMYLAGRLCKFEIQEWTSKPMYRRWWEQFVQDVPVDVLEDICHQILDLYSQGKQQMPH", "assay": "Lanthascreen kinase binding assay, CDK12", "details": "for Lanthascreen raw signal, sheet CDK12: series r37, duplicates", "procedure": "(§1) Lanthascreen experiments were performed using commercially available reagents (Thermo Fisher) and according to the manufacturer’s instructions."}, "CDK2–cyclin A": {"target": "T1, CDK2–cyclin A (Homo sapiens, UniProt P24941)", "T1 construct": "purchased Thermo Fisher", "assay": "Lanthascreen kinase binding assay, CDK2", "details": "for Lanthascreen signal, sheet CDK2: raw replicates, experiment r36-r46", "procedure": "as §1"}, "HEK293T cells": {"tested_on": "HEK293T cells", "assay": "Drug sensitivity assay (CellTiter-Glo viability) with or without MLN4924 pretreatment", "type": "cell-based, human", "details": "Supplementary Table 2", "how_it_was_run": "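Viability of HEK293T–Cas9 cells was compared after 3-day drug treatment with or without 100 nM MLN4924 pretreatment (2 h, versus DMSO). Values are CellTiter-Glo signals relative to DMSO controls.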"}, "CDK9–cyclin T": {"target": "T2, CDK9–cyclin T (Homo sapiens, UniProt P50750)", "T2 construct": "purchased Thermo Fisher", "assay": "Lanthascreen kinase binding assay, CDK9", "details": "for Lanthascreen TR-FRET signal (raw ratio), sheet CDK9: third titration set (r25), duplicates", "procedure": "as §1"}, "[1]": {"tested_on": "cyclin K–eGFP degradation reporter", "assay": "Cyclin K reporter stability analysis (dual-color cyclin K–eGFP reporter)", "type": "cell-based, human", "details": "Supplementary Table 2; HEK293T cycK-eGFP reporter, 5 h; read-out: Cellular assays DC50", "how_it_was_run": "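First, reporter-bearing HEK293T–Cas9 cells are plated at 1 × 10^6 ml^−1. Next, drug or vehicle is added for 5 h. Finally, geometric-mean eGFP and mCherry signals of round, mCherry-positive cells are measured cytometrically, and their ratio is referenced to the DMSO average.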"}, "CDK12–cyclin K and DDB1": {"target": "T3, CDK12–cyclin K and DDB1 (Homo sapiens, UniProt Q16531+Q9NYV4, K965R)", "T3 construct": "His6–CDK12 (a.a. 713–1,052); full-length or beta-propeller B domain deletion (ΔBPB: a.a. 396–705 deleted) constructs of His6–DDB1ΔBPB, StrepII–Avi–DDB1, or His6–Spy–DDB1; made in house; host or cells: Trichoplusia ni High Five insect cells (baculovirus)", "T3 sequence (Q9NYV4 713-1052 K965R)": "as the sequence (Q9NYV4 713-1052) above, with K253R counted along it", "T3 sequence (O75909 1-267 partner)": "as the sequence (O75909 1-267 partner limits assumed) above", "T3 sequence (Q16531 whole entry)": "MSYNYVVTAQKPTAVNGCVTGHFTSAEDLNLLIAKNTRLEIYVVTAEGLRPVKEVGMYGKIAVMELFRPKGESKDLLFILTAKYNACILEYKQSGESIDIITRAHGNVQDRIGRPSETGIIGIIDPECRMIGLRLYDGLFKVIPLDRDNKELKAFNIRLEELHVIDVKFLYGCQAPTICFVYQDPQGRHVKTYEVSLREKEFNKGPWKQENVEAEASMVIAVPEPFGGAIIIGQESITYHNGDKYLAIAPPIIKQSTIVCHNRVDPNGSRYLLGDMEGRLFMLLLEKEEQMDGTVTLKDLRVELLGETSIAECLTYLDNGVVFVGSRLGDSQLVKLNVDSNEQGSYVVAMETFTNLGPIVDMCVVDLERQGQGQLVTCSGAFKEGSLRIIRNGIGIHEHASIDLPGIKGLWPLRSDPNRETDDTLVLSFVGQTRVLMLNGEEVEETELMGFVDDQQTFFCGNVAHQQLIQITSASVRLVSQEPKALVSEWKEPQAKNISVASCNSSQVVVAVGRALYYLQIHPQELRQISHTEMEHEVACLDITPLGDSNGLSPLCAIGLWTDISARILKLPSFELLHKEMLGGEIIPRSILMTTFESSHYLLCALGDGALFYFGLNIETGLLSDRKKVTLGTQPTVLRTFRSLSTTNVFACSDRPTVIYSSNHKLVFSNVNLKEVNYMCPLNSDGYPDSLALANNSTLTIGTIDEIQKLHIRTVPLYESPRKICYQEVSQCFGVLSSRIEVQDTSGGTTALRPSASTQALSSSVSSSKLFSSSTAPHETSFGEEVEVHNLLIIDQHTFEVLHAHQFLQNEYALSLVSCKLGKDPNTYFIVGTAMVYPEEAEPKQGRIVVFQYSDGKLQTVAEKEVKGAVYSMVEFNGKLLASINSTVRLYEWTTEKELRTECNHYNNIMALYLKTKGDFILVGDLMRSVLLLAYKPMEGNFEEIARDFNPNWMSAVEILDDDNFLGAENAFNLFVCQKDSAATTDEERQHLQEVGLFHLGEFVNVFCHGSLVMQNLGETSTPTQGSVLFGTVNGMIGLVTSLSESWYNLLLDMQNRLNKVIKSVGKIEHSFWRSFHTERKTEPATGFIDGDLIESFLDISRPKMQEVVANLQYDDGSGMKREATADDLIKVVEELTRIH", "assay": "TR-FRET ternary complex formation assay (compound titration)", "type": "binding", "how_it_was_run": "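Delayed (70 μs) time-resolved read; FRET computed as 520 nm over 490 nm emission.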"}}, "note": "“And” between values parts separate entries of the source, which are not always exact repeats. Equal values may be shown once. Read-outs that look alike come from different tables or passages of the source."}
{"smiles": "CC[C@H](CO)Nc1nc(NCc2ccc(-c3ccccn3)cc2)c2ncn(-c3cnn(C)c3)c2n1", "note": "[DS20]", "values": [{"measurement": "IC50", "setting": "CDK12–cyclin K; Lanthascreen, average, Extended Data Fig. 8, read-out: CDK12 IC50", "result": "> 10000", "unit": "nM"}, {"measurement": "IC50", "setting": "CDK12–cyclin K; Supplementary Table 2, read-out: Lanthascreen IC50 [nM] CDK12", "result": "> 10000", "unit": "nM"}, {"measurement": "Lanthascreen raw signal, sheet CDK12", "setting": "CDK12–cyclin K; compound 0.038147 nM", "result": "0.01392 and 0.01331"}, {"measurement": "Lanthascreen raw signal, sheet CDK12", "setting": "CDK12–cyclin K; compound 0.152588 nM", "result": "0.01475 and 0.01452"}, {"measurement": "Lanthascreen raw signal, sheet CDK12", "setting": "CDK12–cyclin K; compound 0.610352 nM", "result": 0.01495}, {"measurement": "Lanthascreen raw signal, sheet CDK12", "setting": "CDK12–cyclin K; compound 9.76563 nM", "result": "0.01647 and 0.01469"}, {"measurement": "Lanthascreen raw signal, sheet CDK12", "setting": "CDK12–cyclin K; compound 39.0625 nM", "result": "0.0142 and 0.01474"}, {"measurement": "Lanthascreen raw signal, sheet CDK12", "setting": "CDK12–cyclin K; compound 156.25 nM", "result": "0.01388 and 0.01469"}, {"measurement": "Lanthascreen raw signal, sheet CDK12", "setting": "CDK12–cyclin K; compound 625 nM", "result": "0.01464 and 0.015"}, {"measurement": "Lanthascreen raw signal, sheet CDK12", "setting": "CDK12–cyclin K; compound 2500 nM", "result": "0.01337 and 0.01367"}, {"measurement": "Lanthascreen raw signal, sheet CDK12", "setting": "CDK12–cyclin K; compound 10000 nM", "result": "0.01057 and 0.01115"}, {"measurement": "Lanthascreen signal, sheet CDK2", "setting": "CDK2–cyclin A; Compound 0.038147 nM", "result": "0.01372 and 0.01355"}, {"measurement": "Lanthascreen signal, sheet CDK2", "setting": "CDK2–cyclin A; Compound 0.152588 nM", "result": "0.01402 and 0.01425"}, {"measurement": "Lanthascreen signal, sheet CDK2", "setting": "CDK2–cyclin A; Compound 0.610352 nM", "result": "0.0137 and 0.01464"}, {"measurement": "Lanthascreen signal, sheet CDK2", "setting": "CDK2–cyclin A; Compound 9.76563 nM", "result": "0.01391 and 0.01419"}, {"measurement": "Lanthascreen signal, sheet CDK2", "setting": "CDK2–cyclin A; Compound 39.0625 nM", "result": "0.01392 and 0.01397"}, {"measurement": "Lanthascreen signal, sheet CDK2", "setting": "CDK2–cyclin A; Compound 156.25 nM", "result": "0.01435 and 0.01404"}, {"measurement": "Lanthascreen signal, sheet CDK2", "setting": "CDK2–cyclin A; Compound 625 nM", "result": "0.01359 and 0.01432"}, {"measurement": "Lanthascreen signal, sheet CDK2", "setting": "CDK2–cyclin A; Compound 2500 nM", "result": "0.01402 and 0.01364"}, {"measurement": "Lanthascreen signal, sheet CDK2", "setting": "CDK2–cyclin A; Compound 10000 nM", "result": "0.01203 and 0.01167"}, {"measurement": "IC50", "setting": "CDK2–cyclin A; Lanthascreen, average, Extended Data Fig. 8, read-out: CDK2 IC50", "result": "> 10000", "unit": "nM"}, {"measurement": "IC50", "setting": "CDK2–cyclin A; Supplementary Table 2, read-out: Lanthascreen IC50 [nM] CDK2", "result": "> 10000", "unit": "nM"}, {"measurement": "EC50", "setting": "HEK293T cells; Homo sapiens, HEK-293T, HEK293T viability, 72 h, compound alone, read-out: Cellular assays EC50", "result": "> 10", "unit": "µM"}, {"measurement": "Toxicity rescue", "setting": "HEK293T cells; MLN4924-mediated cytotoxicity rescue, 10 µM used where n.d.", "result": 0, "unit": "%"}, {"measurement": "IC50", "setting": "CDK9–cyclin T; Supplementary Table 2, read-out: Lanthascreen IC50 [nM] CDK9", "result": 3200, "unit": "nM"}, {"measurement": "Lanthascreen TR-FRET signal (raw ratio), sheet CDK9", "setting": "CDK9–cyclin T; compound 0.038147 nM", "result": "0.01966 and 0.01664"}, {"measurement": "Lanthascreen TR-FRET signal (raw ratio), sheet CDK9", "setting": "CDK9–cyclin T; compound 0.152588 nM", "result": "0.02094 and 0.01978"}, {"measurement": "Lanthascreen TR-FRET signal (raw ratio), sheet CDK9", "setting": "CDK9–cyclin T; compound 0.610352 nM", "result": "0.02169 and 0.01748"}, {"measurement": "Lanthascreen TR-FRET signal (raw ratio), sheet CDK9", "setting": "CDK9–cyclin T; compound 9.76563 nM", "result": "0.02175 and 0.01903"}, {"measurement": "Lanthascreen TR-FRET signal (raw ratio), sheet CDK9", "setting": "CDK9–cyclin T; compound 39.0625 nM", "result": "0.02145 and 0.01745"}, {"measurement": "Lanthascreen TR-FRET signal (raw ratio), sheet CDK9", "setting": "CDK9–cyclin T; compound 156.25 nM", "result": "0.02109 and 0.01723"}, {"measurement": "Lanthascreen TR-FRET signal (raw ratio), sheet CDK9", "setting": "CDK9–cyclin T; compound 625 nM", "result": "0.02056 and 0.01753"}, {"measurement": "Lanthascreen TR-FRET signal (raw ratio), sheet CDK9", "setting": "CDK9–cyclin T; compound 2500 nM", "result": "0.01726 and 0.0135"}, {"measurement": "Lanthascreen TR-FRET signal (raw ratio), sheet CDK9", "setting": "CDK9–cyclin T; compound 10000 nM", "result": "0.01114 and 0.009536"}, {"measurement": "DC50", "setting": "[1]", "result": "> 10", "unit": "µM"}, {"measurement": "TR-FRET signal at compound concentration 4.68 nM", "setting": "CDK12–cyclin K and DDB1; compound concentration 4.68 nM, raw replicate titration data", "result": "0.1341 and 0.1393"}, {"measurement": "TR-FRET signal at compound concentration 21.6 nM", "setting": "CDK12–cyclin K and DDB1; compound concentration 21.6 nM, raw replicate titration data", "result": "0.1505 and 0.1671"}, {"measurement": "TR-FRET signal at compound concentration 36 nM", "setting": "CDK12–cyclin K and DDB1; compound concentration 36 nM, raw replicate titration data", "result": "0.1763 and 0.1953"}, {"measurement": "TR-FRET signal at compound concentration 79.2001 nM", "setting": "CDK12–cyclin K and DDB1; compound concentration 79.2001 nM, raw replicate titration data", "result": "0.2244 and 0.2373"}, {"measurement": "TR-FRET signal at compound concentration 158.4 nM", "setting": "CDK12–cyclin K and DDB1; compound concentration 158.4 nM, raw replicate titration data", "result": "0.3075 and 0.3209"}, {"measurement": "TR-FRET signal at compound concentration 309.6 nM", "setting": "CDK12–cyclin K and DDB1; compound concentration 309.6 nM, raw replicate titration data", "result": "0.4615 and 0.4691"}, {"measurement": "TR-FRET signal at compound concentration 626.401 nM", "setting": "CDK12–cyclin K and DDB1; compound concentration 626.401 nM, raw replicate titration data", "result": "0.7336 and 0.7393"}, {"measurement": "TR-FRET signal at compound concentration 1252.8 nM", "setting": "CDK12–cyclin K and DDB1; compound concentration 1252.8 nM, raw replicate titration data", "result": "1.129 and 1.14"}, {"measurement": "TR-FRET signal at compound concentration 2448 nM", "setting": "CDK12–cyclin K and DDB1; compound concentration 2448 nM, raw replicate titration data", "result": "1.631 and 1.657"}, {"measurement": "TR-FRET signal at compound concentration 9936.01 nM", "setting": "CDK12–cyclin K and DDB1; compound concentration 9936.01 nM, raw replicate titration data", "result": "2.437 and 2.497"}, {"measurement": "TR-FRET signal at compound concentration 20016 nM", "setting": "CDK12–cyclin K and DDB1; compound concentration 20016 nM, raw replicate titration data", "result": "2.527 and 2.638"}, {"measurement": "DDB1–CDK12 complex formation, result in words", "setting": "CDK12–cyclin K and DDB1; in vitro TR-FRET", "result": "poorer glues"}, {"measurement": "EC50", "setting": "CDK12–cyclin K and DDB1; sheet MOESM7, read-out: log TR-FRET EC50 (converted)", "result": 1.84, "unit": "µM"}]}
